Calls of active or inactive are those of the source.
Experiments:
[1] = biological target: T1, Tyrosine-protein phosphatase non-receptor type 7 (Homo sapiens, UniProt P35236); assay: HePTP tyrosine phosphatase activity blockers – biochemical, absorbance, leukemia target, primary screen (AID 521); type: functional
T1 sequence (P35236 whole entry): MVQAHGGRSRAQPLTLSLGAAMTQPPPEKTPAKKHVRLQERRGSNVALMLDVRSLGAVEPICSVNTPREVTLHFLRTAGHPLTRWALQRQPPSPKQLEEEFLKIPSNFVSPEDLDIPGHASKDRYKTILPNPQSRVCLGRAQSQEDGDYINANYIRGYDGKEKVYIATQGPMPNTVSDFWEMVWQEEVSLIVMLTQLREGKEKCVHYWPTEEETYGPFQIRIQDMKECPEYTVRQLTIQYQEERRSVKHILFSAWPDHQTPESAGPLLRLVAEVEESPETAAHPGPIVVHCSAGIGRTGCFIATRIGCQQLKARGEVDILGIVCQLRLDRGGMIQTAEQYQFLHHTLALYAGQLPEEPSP

[2] = biological target: T2, Calpain-2 catalytic subunit (Sus scrofa, UniProt P43367); assay: m-calpain protease blockers, concentration series – biochemical, fluorogenic peptide substrate, dose response (AID 1420); type: functional
T2 sequence (P43367 whole entry): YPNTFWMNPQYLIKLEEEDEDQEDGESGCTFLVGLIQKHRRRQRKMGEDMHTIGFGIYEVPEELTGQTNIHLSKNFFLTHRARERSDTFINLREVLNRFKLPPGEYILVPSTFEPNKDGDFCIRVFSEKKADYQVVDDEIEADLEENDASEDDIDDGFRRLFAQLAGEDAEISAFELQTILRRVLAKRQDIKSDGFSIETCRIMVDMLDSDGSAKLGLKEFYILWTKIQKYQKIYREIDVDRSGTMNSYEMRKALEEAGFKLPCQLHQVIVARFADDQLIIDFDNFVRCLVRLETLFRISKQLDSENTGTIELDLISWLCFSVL

[3] = biological target: Luciferin 4-monooxygenase (Photinus pyralis, UniProt P08659); assay: inhibition of purified Photinus pyralis luciferase – biochemical, luminescence, dose response (AID 1891)
Estrogen receptor = biological target: T3, Estrogen receptor (Homo sapiens, UniProt P03372);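 note: potency for inhibiting coactivator peptide recruitment to the receptor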
T3 sequence (P03372 whole entry): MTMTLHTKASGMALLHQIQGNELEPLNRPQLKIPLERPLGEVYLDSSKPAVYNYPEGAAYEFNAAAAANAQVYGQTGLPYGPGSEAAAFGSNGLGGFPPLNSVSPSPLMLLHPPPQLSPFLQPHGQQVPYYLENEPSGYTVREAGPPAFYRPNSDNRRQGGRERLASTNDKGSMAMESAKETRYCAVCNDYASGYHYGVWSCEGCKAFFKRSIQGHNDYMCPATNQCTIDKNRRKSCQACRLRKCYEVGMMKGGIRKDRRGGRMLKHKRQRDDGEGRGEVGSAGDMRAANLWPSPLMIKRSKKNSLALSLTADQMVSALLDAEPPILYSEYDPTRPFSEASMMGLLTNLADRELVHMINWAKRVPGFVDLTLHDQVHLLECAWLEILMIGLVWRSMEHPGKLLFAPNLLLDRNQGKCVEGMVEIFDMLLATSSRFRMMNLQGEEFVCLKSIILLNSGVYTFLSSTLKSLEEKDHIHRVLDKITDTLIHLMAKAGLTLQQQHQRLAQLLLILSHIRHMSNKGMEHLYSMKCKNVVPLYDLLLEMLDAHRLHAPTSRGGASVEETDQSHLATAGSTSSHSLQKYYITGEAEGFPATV

[4] = Luminescence Cell-Based Dose Confirmation HTS to Identify Inhibitors of Platelet Dense Granule Release. [Related pubchem assays: 1663 (Primary HTS), 1678 (Summary of Project)]; type: functional
Estrogen receptor beta [5] = biological target: T4, Estrogen receptor beta (Homo sapiens, UniProt Q92731);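 note: recombinant ER-beta bound to coactivator SRC1 peptide in presence of estradiol agonist; inhibitors block coactivator peptide binding and lower the FRET signal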
Estrogen receptor beta [6] = biological target: T4, Estrogen receptor beta; assay: blockers of SRC-3 recruitment to ERβ – biochemical, ELISA, streptavidin-HRP readout, orthogonal assay, confirmation (AID 1060)
[7] = biological target: T5, Carboxy-terminal domain RNA polymerase II polypeptide A small phosphatase 1 (Homo sapiens, UniProt Q9GZU7); assay: CTDSP1 inhibitors, concentration-response, biochemical, absorbance readout, ultra-high-throughput screen actives (AID 540297); type: functional
T5 sequence (Q9GZU7 whole entry): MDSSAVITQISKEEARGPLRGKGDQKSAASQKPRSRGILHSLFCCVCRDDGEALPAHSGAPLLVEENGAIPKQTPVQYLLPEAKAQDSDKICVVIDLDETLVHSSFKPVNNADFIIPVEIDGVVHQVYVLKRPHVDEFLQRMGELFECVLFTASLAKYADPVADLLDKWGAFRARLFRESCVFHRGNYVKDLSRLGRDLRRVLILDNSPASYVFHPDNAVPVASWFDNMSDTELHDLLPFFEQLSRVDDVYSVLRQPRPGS

[8] = biological target: Induced myeloid leukemia cell differentiation protein Mcl-1 (Homo sapiens, UniProt Q07820); assay: blockers of MCL1 binding to BIM peptide – biochemical, fluorescence polarization, BIM-BH3 peptide, 1536-well, dose response (AID 2217)
Bcl-2-like protein 1 = Bcl-2-like protein 1 (Homo sapiens, UniProt Q07817); assay: blockers of BCLXL peptide binding – biochemical, fluorescence polarization, 1536-well, selectivity assay for MCL1 inhibitor project, dose response (AID 2218)
Albumin = Albumin (Bos taurus, UniProt P02769); assay: Counterscreen for inhibitors of T-cell receptor (TCR)-CD3 interaction: Fluorescence-based biochemical high throughput dose response assay to identify inhibitors of T-cell receptor (TCR)-CD3 interaction using a TAMRA-labeled BSA probe.; type: functional
Caspase-6 = biological target: T6, Caspase-6 (Homo sapiens, UniProt P55212); assay: inhibition of CASP6 peptide cleavage – biochemical, VEID-R110 fluorescence, cherry-pick, dose response (AID 720632)
T6 sequence (P55212 whole entry): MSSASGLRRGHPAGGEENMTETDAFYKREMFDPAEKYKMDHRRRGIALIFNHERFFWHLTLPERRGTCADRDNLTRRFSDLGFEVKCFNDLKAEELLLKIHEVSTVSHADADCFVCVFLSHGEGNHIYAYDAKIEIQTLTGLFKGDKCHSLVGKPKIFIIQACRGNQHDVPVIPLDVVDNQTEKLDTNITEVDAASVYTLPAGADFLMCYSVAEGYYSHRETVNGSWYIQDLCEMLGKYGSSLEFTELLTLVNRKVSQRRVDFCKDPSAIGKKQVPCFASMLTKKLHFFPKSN

[9] = biological target: T7, RNA-binding protein pos-1 (Caenorhabditis elegans, UniProt G5EF15); assay: disruptors of C. elegans POS-1 RNA interaction – biochemical, fluorescence polarization, dose response (AID 1964);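 note: purified POS-1 fused to maltose binding protein made in E. coli; potency of compounds blocking POS-1 binding to fluorescent RNA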
T7 sequence (G5EF15 whole entry): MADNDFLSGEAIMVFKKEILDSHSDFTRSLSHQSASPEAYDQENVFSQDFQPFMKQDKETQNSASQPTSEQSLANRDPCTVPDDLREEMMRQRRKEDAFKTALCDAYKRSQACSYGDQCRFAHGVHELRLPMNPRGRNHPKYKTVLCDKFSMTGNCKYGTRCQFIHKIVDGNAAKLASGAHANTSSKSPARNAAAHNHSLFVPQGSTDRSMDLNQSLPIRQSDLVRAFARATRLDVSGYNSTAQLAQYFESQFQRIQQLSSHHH

[10] = biological target: Ubiquitin carboxyl-terminal hydrolase BAP1 (Homo sapiens, UniProt Q92560); assay: inhibition of BAP1 ubiquitin hydrolase activity – biochemical, dose response (AID 714); type: functional
[11] = biological target: T8, Zinc finger protein mex-5 (Caenorhabditis elegans, UniProt Q9XUB2); assay: potency of MEX-5 RNA-binding blockers – biochemical, C. elegans, fluorescence polarization, dose response (AID 1960)
T8 sequence (Q9XUB2 whole entry): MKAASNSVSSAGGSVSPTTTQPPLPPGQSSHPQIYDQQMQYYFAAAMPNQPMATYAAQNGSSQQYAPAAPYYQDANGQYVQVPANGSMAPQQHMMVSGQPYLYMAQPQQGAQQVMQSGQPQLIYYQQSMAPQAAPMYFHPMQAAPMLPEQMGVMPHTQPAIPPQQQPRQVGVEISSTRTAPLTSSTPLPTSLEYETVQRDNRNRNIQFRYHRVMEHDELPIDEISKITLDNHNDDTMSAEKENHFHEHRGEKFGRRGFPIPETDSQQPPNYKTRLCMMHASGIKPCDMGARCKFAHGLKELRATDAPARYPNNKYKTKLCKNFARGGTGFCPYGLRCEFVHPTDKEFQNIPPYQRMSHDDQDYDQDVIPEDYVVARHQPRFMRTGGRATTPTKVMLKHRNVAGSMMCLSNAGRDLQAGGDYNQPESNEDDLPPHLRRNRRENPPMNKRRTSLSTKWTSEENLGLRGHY

[12] = biological target: Voltage-gated inwardly rectifying potassium channel KCNH2 (Homo sapiens, UniProt Q12809); assay: concentration-dependent hERG rescue from blockers – cell-based, thallium flux, dose response (AID 2121); type: ADME
[13] = biological target: T9, Polyadenylate-binding protein 1 (Homo sapiens, UniProt P11940); assay: MLLE binding blockers, Cy5 peptide tracer – biochemical, fluorescence polarization, Cy5-PAM2 peptide, secondary, miRNA deadenylation inhibitor project, dose response (AID 602260); type: functional; conditions: read-out: IC50_Mean
[14] = biological target: T9, Polyadenylate-binding protein 1; assay: MLLE domain peptide-binding blockers, IC50 – biochemical, fluorescence polarization, FITC-PAM2 peptide, dose response (AID 602259); type: functional; conditions: read-out: IC50_Mean
[15] = biological target: 5-hydroxytryptamine receptor 1A (Homo sapiens, UniProt P08908); type: functional
Protein skinhead-1 = biological target: T10, Protein skinhead-1 (Caenorhabditis elegans, UniProt P34707); type: functional
T10 sequence (P34707 whole entry): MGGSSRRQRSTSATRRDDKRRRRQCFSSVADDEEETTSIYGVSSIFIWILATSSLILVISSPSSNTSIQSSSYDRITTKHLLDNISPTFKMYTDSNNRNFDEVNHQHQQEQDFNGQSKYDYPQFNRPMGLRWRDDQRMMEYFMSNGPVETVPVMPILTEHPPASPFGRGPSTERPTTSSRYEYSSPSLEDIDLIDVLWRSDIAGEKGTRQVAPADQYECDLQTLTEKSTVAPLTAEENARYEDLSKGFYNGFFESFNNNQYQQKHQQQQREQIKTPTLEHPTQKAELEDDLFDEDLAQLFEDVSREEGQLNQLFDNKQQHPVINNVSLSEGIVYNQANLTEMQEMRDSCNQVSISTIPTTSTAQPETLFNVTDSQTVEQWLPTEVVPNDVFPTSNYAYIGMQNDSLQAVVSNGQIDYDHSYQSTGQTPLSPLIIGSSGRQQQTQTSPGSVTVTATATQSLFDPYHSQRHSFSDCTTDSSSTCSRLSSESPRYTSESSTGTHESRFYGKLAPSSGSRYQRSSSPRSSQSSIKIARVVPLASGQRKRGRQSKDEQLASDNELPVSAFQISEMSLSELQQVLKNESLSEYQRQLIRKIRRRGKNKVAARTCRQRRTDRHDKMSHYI

[16] = Luminescence Cell-Based Dose Confirmation HTS to Identify Inhibitors of Polyadenylation.; type: functional
[17] = Luminescence Cell-Based Dose Response to Identify Activators of 5'UTR Stem-Loop Driven Prion Protein mRNA Translation in H4-C Neuroglioblastoma Cells. [Related pubchem assays: 1829 (Project Summary), 1814 (Primary HTS)]; type: functional
[18] = Luminescence Cell-Based Dose Response HTS to Identify Activators of Luciferase Translation or Activity in H4 […] Cells. [Related pubchem assays: 1829 (Project Summary), 1814 (Primary HTS)]; type: functional
H4 = assay: Luminescence Cell-Based Dose Response HTS to Identify Activators of 5'UTR Stem-Loop Driven Prion Protein mRNA Translation in H4 Neuroglioblastoma Cells. [Related pubchem assays: 1829 (Project Summary), 1814 (Primary HTS)]; type: functional; conditions: Homo sapiens
[19] = Luminescence Cell-Based Dose Response to Identify Activators of Luciferase Translation or Activity in H4-C Neuroglioblastoma Cells. [Related pubchem assays: 1829 (Project Summary), 1814 (Primary HTS)]; type: functional
[20] = Luminescence Cell-Based Dose Confirmation to Identify Activators of 5'UTR Stem-Loop Driven Alpha-Synuclein mRNA Translation in H4 Neuroglioblastoma Cells. [Related pubchem assays: 1829 (Project Summary), 1814 (Primary HTS)]; type: functional
Cytochrome P450 2C19 = Cytochrome P450 2C19 (Homo sapiens, UniProt P33261); assay: Cytochrome panel assay with activity outcomes. Panel member name: p450-cyp2c19 Compounds with AC50 equal or less than 10 uM are considered active; type: functional; conditions: read-out: AC50
Cytochrome P450 2D6 = Cytochrome P450 2D6 (Homo sapiens, UniProt P10635);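 note: CYP2D6 member of a cytochrome P450 panel assay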
Sequence of Cytochrome P450 2D6 (P10635 whole entry): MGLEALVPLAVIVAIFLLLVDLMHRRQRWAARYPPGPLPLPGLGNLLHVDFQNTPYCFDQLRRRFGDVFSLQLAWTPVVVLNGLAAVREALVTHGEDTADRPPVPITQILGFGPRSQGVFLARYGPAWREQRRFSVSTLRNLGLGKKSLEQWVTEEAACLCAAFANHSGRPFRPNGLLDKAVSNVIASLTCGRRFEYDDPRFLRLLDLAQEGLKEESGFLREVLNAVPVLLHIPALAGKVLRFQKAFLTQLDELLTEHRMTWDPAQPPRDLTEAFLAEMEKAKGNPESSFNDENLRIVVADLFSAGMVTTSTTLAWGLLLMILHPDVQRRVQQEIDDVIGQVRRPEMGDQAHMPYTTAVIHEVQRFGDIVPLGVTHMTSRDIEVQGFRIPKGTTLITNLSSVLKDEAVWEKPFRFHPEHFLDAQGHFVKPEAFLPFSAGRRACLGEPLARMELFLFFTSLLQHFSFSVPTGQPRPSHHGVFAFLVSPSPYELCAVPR

T4 sequence (Q92731 whole entry): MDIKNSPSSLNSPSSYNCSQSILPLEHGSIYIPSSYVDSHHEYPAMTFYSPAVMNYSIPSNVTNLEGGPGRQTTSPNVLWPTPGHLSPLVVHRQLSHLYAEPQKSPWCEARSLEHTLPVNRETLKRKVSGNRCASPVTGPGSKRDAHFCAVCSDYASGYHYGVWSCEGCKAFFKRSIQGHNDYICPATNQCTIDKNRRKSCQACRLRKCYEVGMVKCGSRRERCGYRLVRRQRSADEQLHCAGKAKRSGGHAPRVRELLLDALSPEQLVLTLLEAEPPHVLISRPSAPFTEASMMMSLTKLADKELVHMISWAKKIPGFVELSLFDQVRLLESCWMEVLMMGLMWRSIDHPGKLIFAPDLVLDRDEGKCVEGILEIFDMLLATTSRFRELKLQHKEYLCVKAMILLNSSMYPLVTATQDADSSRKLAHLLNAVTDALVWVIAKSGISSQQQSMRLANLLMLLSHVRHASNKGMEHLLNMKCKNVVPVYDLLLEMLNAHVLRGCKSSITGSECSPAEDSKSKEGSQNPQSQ
T9 sequence (P11940 whole entry, the tested form may be a part): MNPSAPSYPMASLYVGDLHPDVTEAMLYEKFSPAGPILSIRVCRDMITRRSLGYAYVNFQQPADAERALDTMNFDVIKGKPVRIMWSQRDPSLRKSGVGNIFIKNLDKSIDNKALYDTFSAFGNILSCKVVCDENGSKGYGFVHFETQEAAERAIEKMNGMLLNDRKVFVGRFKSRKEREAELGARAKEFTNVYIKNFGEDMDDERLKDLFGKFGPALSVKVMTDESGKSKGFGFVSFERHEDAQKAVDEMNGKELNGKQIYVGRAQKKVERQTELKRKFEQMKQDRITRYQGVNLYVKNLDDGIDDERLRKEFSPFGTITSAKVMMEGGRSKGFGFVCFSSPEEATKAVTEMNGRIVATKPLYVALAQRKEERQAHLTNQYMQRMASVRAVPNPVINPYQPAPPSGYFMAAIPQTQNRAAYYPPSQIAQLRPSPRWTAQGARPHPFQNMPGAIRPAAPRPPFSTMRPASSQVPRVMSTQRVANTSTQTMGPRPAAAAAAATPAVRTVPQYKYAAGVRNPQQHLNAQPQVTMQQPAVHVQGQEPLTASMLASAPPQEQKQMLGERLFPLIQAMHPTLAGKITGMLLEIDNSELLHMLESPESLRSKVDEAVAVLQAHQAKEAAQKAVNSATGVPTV
Sequence of Voltage-gated inwardly rectifying potassium channel KCNH2 (Q12809 whole entry): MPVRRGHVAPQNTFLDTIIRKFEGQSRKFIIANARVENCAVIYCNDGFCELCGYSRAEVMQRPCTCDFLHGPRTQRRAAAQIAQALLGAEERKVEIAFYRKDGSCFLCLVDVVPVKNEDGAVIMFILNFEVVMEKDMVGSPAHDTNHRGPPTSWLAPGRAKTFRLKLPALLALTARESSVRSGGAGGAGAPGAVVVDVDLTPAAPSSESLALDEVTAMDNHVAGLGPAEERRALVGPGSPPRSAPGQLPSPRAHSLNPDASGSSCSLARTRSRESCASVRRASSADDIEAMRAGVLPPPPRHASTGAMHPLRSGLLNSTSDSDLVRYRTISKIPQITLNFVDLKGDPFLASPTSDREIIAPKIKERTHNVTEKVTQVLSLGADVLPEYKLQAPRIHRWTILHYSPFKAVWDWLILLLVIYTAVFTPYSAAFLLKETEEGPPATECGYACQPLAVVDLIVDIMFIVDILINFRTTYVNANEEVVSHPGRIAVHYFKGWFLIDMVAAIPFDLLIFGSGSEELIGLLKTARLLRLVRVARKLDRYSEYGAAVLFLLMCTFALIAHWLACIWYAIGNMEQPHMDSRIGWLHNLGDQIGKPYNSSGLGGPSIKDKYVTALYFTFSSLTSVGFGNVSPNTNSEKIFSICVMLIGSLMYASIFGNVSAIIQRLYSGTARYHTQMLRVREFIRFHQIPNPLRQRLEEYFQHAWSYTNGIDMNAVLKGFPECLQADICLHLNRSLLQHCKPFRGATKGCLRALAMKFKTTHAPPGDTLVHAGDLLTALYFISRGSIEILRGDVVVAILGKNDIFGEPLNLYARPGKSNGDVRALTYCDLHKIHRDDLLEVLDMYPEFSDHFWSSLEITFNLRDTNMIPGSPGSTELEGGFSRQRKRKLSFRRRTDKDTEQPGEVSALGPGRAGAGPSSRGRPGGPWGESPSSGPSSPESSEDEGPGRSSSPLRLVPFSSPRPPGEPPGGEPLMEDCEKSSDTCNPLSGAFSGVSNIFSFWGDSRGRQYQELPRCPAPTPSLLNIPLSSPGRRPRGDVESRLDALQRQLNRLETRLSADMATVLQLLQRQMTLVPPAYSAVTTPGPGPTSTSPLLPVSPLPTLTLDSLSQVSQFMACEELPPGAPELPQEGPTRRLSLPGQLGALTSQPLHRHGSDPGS
Sequence of 5-hydroxytryptamine receptor 1A (P08908 whole entry): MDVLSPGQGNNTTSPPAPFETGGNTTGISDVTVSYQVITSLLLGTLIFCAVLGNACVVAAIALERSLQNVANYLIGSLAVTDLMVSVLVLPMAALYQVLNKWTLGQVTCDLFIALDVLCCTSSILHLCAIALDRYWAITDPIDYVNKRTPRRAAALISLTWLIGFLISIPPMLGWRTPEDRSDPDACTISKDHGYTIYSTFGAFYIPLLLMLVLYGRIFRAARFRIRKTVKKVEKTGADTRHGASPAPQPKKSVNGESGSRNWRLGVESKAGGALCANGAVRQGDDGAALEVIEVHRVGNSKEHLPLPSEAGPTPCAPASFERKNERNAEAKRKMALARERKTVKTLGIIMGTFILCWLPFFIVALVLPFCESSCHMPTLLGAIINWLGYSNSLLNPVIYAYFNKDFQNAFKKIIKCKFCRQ
Sequence of Ubiquitin carboxyl-terminal hydrolase BAP1 (Q92560 whole entry): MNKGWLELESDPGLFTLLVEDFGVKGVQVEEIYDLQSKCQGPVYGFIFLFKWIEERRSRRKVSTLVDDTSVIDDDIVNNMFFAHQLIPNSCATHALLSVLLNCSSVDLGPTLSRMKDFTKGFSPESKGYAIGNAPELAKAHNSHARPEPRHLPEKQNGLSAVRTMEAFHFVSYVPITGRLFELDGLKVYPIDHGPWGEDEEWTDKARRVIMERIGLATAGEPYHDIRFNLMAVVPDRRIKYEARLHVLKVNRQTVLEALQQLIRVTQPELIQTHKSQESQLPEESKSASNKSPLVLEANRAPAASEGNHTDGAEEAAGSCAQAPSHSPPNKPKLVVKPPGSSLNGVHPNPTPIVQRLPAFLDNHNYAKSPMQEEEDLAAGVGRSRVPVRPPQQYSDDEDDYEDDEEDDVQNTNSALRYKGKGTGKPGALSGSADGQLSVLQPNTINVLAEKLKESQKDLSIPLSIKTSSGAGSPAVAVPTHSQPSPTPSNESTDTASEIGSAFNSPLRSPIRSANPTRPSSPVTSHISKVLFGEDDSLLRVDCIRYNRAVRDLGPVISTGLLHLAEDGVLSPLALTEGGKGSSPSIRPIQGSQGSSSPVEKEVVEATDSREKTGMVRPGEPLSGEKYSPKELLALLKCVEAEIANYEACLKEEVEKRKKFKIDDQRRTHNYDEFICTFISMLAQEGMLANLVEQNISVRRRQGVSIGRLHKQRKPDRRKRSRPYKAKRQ
Sequence of Bcl-2-like protein 1 (Q07817 whole entry): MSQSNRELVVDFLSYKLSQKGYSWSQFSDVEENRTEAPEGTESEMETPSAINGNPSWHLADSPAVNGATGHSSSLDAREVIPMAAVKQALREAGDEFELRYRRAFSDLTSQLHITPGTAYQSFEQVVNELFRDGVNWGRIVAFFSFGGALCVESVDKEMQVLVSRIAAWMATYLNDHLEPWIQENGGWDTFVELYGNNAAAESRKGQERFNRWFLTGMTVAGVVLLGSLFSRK
Sequence of Induced myeloid leukemia cell differentiation protein Mcl-1 (Q07820 whole entry): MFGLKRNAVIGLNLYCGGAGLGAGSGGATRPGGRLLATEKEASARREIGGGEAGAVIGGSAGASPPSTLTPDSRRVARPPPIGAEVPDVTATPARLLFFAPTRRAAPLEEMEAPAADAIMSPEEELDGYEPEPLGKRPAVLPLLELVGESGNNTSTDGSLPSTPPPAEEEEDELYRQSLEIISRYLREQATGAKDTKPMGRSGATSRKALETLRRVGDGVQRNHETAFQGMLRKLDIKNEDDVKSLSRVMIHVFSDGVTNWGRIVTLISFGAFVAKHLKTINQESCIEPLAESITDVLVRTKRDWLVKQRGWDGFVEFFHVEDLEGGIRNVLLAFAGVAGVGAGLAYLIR

SMILES: Cc1cc(NC(=O)c2ccc3c(c2)C(=O)N(Cc2cccnc2)C3=O)no1
- IC50 [1]: > 100 µM (not active)
- IC50 [2]: 13.7 µM (not active)

SMILES: Cc1ccc(-c2cc(C(=O)NCc3ccco3)c3ccccc3n2)o1
- EC50 [3]: 36.8 µM (active)
- IC50 (Estrogen receptor): 6.84 µM (active)
- EC50 [4]: > 112 µM (not active)
- IC50 (Estrogen receptor beta [5]): 3.37 µM (active)
- IC50 (Estrogen receptor beta [6]): > 50 µM (not active)
- IC50 [7]: 4.39 µM (active)

SMILES: Cc1ccc(OCC(=O)c2c(N)n(C)c(=O)n(C)c2=O)c([N+](=O)[O-])n1
- IC50 [8]: 8.63 µM (active)
- IC50 (Bcl-2-like protein 1): 21.3 µM (not active)
- IC50 (Albumin): > 94.1 µM (inactive)
- AC50 (Caspase-6): 18.9 µM (active)

SMILES: O=C(c1ccco1)[C@@H]1[C@@H]2C(=O)N(c3ccccc3)C(=O)[C@@H]2C2c3ccccc3C=CN21 (stereo partly drawn)
- EC50 [9]: 39.1 µM (active)
- IC50 [10]: 23.4 µM (active)
- EC50 [11]: 34.9 µM (active)

SMILES: Cc1ccc(C)c(NC(=S)NC(=O)c2cncc(Br)c2)c1
- EC50 [12]: 4.77 µM (active)
- IC50 [13]: > 66 µM (inactive)
- IC50 [14]: > 66 µM (inactive)

SMILES: O=C(O)C1CCCCC1C(=O)NCCc1c[nH]c2ccccc12 (stereo not drawn)
- EC50 [15]: 34.8 µM (not active)
- IC50 (Protein skinhead-1): > 100 µM (inactive)

SMILES: C(=Nc1ncnc2sccc12)NOCc1ccccc1
- EC50 [16]: > 120 µM (not active)

SMILES: C/C(=N\OC(=O)c1ccccc1)c1cc(-c2ccc(Cl)cc2)no1
- EC50 [17]: 1.28 µM (active)
- EC50 [18]: < 0.1 µM (active)
- EC50 (H4): 68.1 µM (active)
- EC50 [19]: 1.04 µM (active)
- EC50 [20]: 4.74 µM (active)
- AC50 (Cytochrome P450 2C19): 22.4 µM (inconclusive)
- AC50 (Cytochrome P450 2D6): inconclusive

From ChEMBL document CHEMBL1201862, “PubChem BioAssay data set” (2004)
